According to PubChem BioAssay (NCI):
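Cells were grown in 96-well plates and exposed to each compound for 48 hours at five concentrations; endpoints were interpolated linearly between bracketing concentrations, or set to the highest concentration if not reached. GI50: concentration for 50% inhibition of growth. At the TGI there is no net growth.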

Tests used:
Experiment in all cases: NCI anticancer screen, dose series, 48 h
SNB-19 CNS = tested on: SNB-19 CNS
A549 NSCLC = tested on: A549 NSCLC
SF-539 CNS = tested on: SF-539 CNS
SK-OV-3 ovarian = tested on: SK-OV-3 ovarian
SK-MEL-5 melanoma = tested on: SK-MEL-5 melanoma
K-562 leukemia = tested on: K-562 leukemia
HS 578T breast = tested on: HS 578T breast
CAKI-1 renal = tested on: CAKI-1 renal
MALME-3M melanoma = tested on: MALME-3M melanoma
SR leukemia = tested on: SR leukemia

SMILES | GI50 (SNB-19 CNS) [µM] | TGI (SNB-19 CNS) [µM] | GI50 (A549 NSCLC) [µM] | TGI (A549 NSCLC) [µM] | GI50 (SF-539 CNS) [µM] | TGI (SF-539 CNS) [µM] | GI50 (SK-OV-3 ovarian) [µM] | TGI (SK-OV-3 ovarian) [µM] | GI50 (SK-MEL-5 melanoma) [µM] | TGI (SK-MEL-5 melanoma) [µM] | GI50 (K-562 leukemia) [µM] | TGI (K-562 leukemia) [µM] | GI50 (HS 578T breast) [µM] | TGI (HS 578T breast) [µM] | GI50 (CAKI-1 renal) [µM] | TGI (CAKI-1 renal) [µM] | GI50 (MALME-3M melanoma) [µM] | TGI (MALME-3M melanoma) [µM] | GI50 (SR leukemia) [µM] | TGI (SR leukemia) [µM]
O=S(=O)(c1ccc(N=C2NN=C(c3c[nH]c4ccccc34)CS2)cc1)N1CCOCC1 | 45.6 | > 100 | 8.68 | > 100 | 27.7 | > 100 | > 100 | > 100 | 2.51 | 16.4 | 2.65 | > 100 | 31.4 | > 100 | 78.1 | > 100 | 34.8 | > 100 | 4.81 | > 100
C=CCC(C(=O)O)c1ccccc1 (stereo not drawn) |  | > 100 |  | > 100 |  | > 100 |  | > 100 |  | > 100 |  | > 100 |  | > 100 |  | > 100 |  | > 100 |  | > 100
CC[Si](CC)(CC)OC[C@]1([C@@H]2COC(C)(C)O2)CC=CC(=O)O1 | 34.7 | > 100 | 30.4 | > 100 | 34.5 | > 100 | 59.9 | > 100 | 19 | 40 | 34.6 | > 100 | 34.6 | > 100 | 33.6 | > 100 | 18.1 | 44.4 | 23 | 95.1
Cn1nc(-c2ccccc2)nc1[N+](=O)[O-] |  | > 10 |  | > 10 |  | > 10 |  | > 10 |  | > 10 |  | > 10 |  | > 10 |  | > 10 |  | > 10 |  | > 10
COc1cc2cc(C(=O)Nc3cc(N)c4ccccc4c3CCCl)[nH]c2c(OC)c1OC | 0.122 | > 10.2 | 0.116 | > 50 | 0.161 | > 50 | 0.0603 |  | 0.0688 | 0.195 | 0.0466 | 2.5 | 0.0899 | > 50 | 0.0193 |  | 0.119 | 0.274 | < 0.005 | 0.0804
COC(=O)c1c2c(c(C)[n+]([O-])c1C)C(=O)C=C(NCc1ccc(OC)cc1)C2=O | 2.12 | 5.58 | 2.21 | 6.44 | 1.77 | 4.36 | 3.08 | 9.3 | 0.607 | 1.21 | 2.68 | 15.3 | 5.32 | 21.6 | 1.5 | 6.81 | 0.3 | 0.845 | 3.5 | > 100
C=CCN1C=CC(=O)[C@H](O[Si](C)(C)C(C)(C)C)[C@@H]1/C=C/c1ccccc1 | 20.7 | 35.3 | 16.8 | 50.3 | 16 | 30.1 | 14.9 | 28.6 | 7.33 | 20 | 9.56 | 31.3 | 14.1 | 34.3 | 15.7 | 32.7 | 17.3 | 34.3 | 5.21 | 26.1
COc1ccc(-c2nc3ncccn3c2/C=C/C(=O)c2cc(OC)c(OC)c(OC)c2)cc1 | 3.01 | 10.3 | 2.71 | > 100 | 1.36 | 2.95 | 2.5 | 7.01 | 1.52 | 2.87 | 2.63 | > 100 | 1.91 | 14.7 | 1.58 | 5.06 | 1.81 | 17.1 | 1.53 | > 100
CC1(C)CC(n2cnc(-c3ccc(F)cc3)c2-c2ccnc(N)n2)CC(C)(C)N1 | > 25 | > 25 | 12.5 | > 25 | > 25 | > 25 | 23.6 | > 25 | > 16.2 | > 25 | > 24.1 | > 25 | > 25 | > 25 | > 25 | > 25 | > 25 | > 25 | > 19.3 | > 25
CCN=c1cc2sc3cc(NCC)c(C)cc3nc-2cc1C |  |  | 1.84 | 10.9 | 0.434 | 10.2 | 2.58 | 12.6 | 0.475 | 1.93 | 0.358 | 16.3 | 2.14 | 15.2 | 1.34 | 4.6 | 0.782 | 3.88 | 1.01 | > 100
C=CCN(CC=C)C(=O)c1cc(C)nc2c1c(=O)n(-c1ccccc1)c(=O)n2CC(O)CN1CCN(c2ncccn2)CC1 (stereo not drawn) | > 100 | > 100 |  |  | > 100 | > 100 | > 100 | > 100 | > 100 | > 100 | > 100 | > 100 | > 100 | > 100 | > 100 | > 100 | > 100 | > 100 | > 100 | > 100
COc1cc2c(Oc3ccc4[nH]c(C)cc4c3F)ccnc2cc1OCC1(N)CC1 | 1.64 | 28.1 |  |  | 0.315 | 1.81 | 3.61 | 80.2 | 0.967 | 2.24 | 0.416 | 12.3 | 0.759 | 3.29 | 1.04 | 6.99 | 1.21 | 3.03 | 0.395 | 4.31
C=C(C)CN(CC#N)CC(=C)C |  | > 100 |  | > 100 |  |  |  | > 100 |  | > 100 |  | > 100 |  | > 100 |  | > 100 |  | > 100 |  | > 100
O=CN1N=C(c2ccc(Cl)cc2)CC1c1cccc(Nc2ccnc3cc(Cl)ccc23)c1 (stereo not drawn) | 4.19 | > 100 | 2.03 | 94.2 | 1.69 | 5.03 | 2.9 | > 100 | 0.54 | 1.93 | 0.388 | 10.2 | 3.23 | > 100 |  |  | 1.27 | 7.25 | 0.404 | 3.76
O=C1c2cc([N+](=O)[O-])ccc2-c2cccc(F)c21 |  | > 100 |  | > 100 |  | > 100 |  | > 100 |  | > 100 |  | > 100 |  | > 100 |  | > 100 |  |  |  | > 100
